The values below come from patent US20100166848A1, “LIPOSOMAL FORMULATIONS FOR TREATING CANCER” (priority 2007, published 2010).

The subject of test [1] is SW620 tumor. Description: In vivo efficacy, SW620 mouse xenograft model.
Method: Four-week old, female Swiss, nude mice (n=5 per group, Charles River, Lyon, France) were subcutaneously inoculated with 1×10^6 SW620 cells on the right flank. […] Drugs were administered intraperitoneously on a 3×/week basis for three consecutive weeks (e.g., D1/D2/D3, D8/D9/D10 and D16/D17/D18). Tumor size was measured three times a week in three dimensions using Vernier calipers, and tumor weight (mg) was calculated using the following standard formula: mass=pi/6XlengthXwidthXheight (Waterhouse et al, 2005). Preliminary experiments performed with empty liposomes were conducted to confirm the absence of any in vivo antiproliferative activity. Animal weight was monitored as a marker of toxicity. Animals were euthanized whenever a 25% loss of initial weight was observed, or when tumors reached 2500 mg.
In test [2] the test system is 5-FU-resistant SW620 human colorectal cell line. Description: MTT testing of triple liposomal formulation, 72 continuous exposure. It is filed as cell-based. The following applies: SW-620. From the text: Cell sensitivity was estimated by calculating the respective IC50 of the different regimen (MTT testing, 72 continuous exposure).
The test system of test [3] is SW620 cells. Description: 5-FU tumoral metabolism study with tritiated 5-FU. It is filed as cell-based, human. Particulars: SW620, 1 μM tritiated 5-FU, 3-6 h observation period. As to the method: (§1) All experiments were carried out in the 5-FU-resistant, human colon carcinoma cell line SW620 (a.k.a CCL227) which overexpresses TS. Cells were maintained in RPMI supplemented with 10% fetal calf serum, […] and 1% kanamycin in a humidified CO2 incubator at 37° C. All experiments were performed in exponentially growing cells.
Exponentially growing cells were exposed to 1 μM of tritiated 5-FU alone, combined with free d-Ino or as a liposomal preparation [5-FU+d-Ino]-L. After 3, 4 and 6 h exposure, cells were harvested, lysed into 70% methanol and cytosols were isolated by centrifugation (15000 rpm, 30 min) and stored at −80° C. until analysis. Separation of 5-FU and its main metabolites was achieved using a HP1090 HPLC system (Agilent, France) coupled to a Flo-One radioactive detector (Packard, France) and equipped with an RP18 column (Agilent, France), followed by elution with a K2HPO4-TBAN:Methanol gradient as described previously (Ciccolini et al, 2000b).

In test [4] the test system is SW620 human colon carcinoma cell line. Description: Antiproliferative MTT assay, 24 h exposure plus 48 h drug-free. It is filed as cell-based. The following applies: SW-620, SW620, 24 h exposure + 48 h drug-free medium, n=3, read-out: IC50 (5-FU concentration inhibiting 50% of cell growth). As to the method:
as §1
Cells were seeded at a density of 8×10^4 cells/well in 96-well plates. […] Next, drug was removed and the cells were allowed to grow in fresh medium for an additional 48 h. After 72 h of discontinuous exposure, cell viability was evaluated using the classic colorimetric MTT assay (Alley et al, 1988). The IC50 was defined as the 5-FU concentration inhibiting 50% of cell growth.
A general note: Formazan colour is commonly taken as a measure of viable cells.

In test [5] the test system is colorectal cancer. Particulars: monotherapy; cited from earlier work.

The structures appear in SMILES notation.

For `O=c1[nH]cc(F)c(=O)[nH]1` [5-FU, 5-fluorouracil], the “tumor size reduction at the conclusion of the study” value in test [1] (5-FU 50 mg/kg, d-Ino 120 mg/kg IP, 3x/week for three weeks) came to 28%. In addition, in test [1] (as compared with untreated animals), the “effect on tumor growth, in words” value is “failed to reduce tumor growth”. In addition, in test [1] (controls 16 days), the survival time worked out at 20 days. Further, the “increase in survival time compared to controls” value in test [1] (mouse, in vivo) was found to be 25%. The IC50 is 62 µM in test [2] and 77 ± 6 µM in test [4]. In test [3], the “anti-TS FdUMP synthesis” value is reported as 83 dpm/mg protein. The response rate in test [5] was 20%.
